# Measured values taken from patent publication US20050197350A1, “Novel quinoline, tetrahydroquinazoline, and pyrimidine derivatives and methods of treatment related to the use thereof” (TAISHO PHARMACEUTICAL CO., LTD., priority 2003, published 2005).
# System: MCH receptors
# Test: MCH receptor activity class (method not given)
# Settings: MCH receptor; class by percent of control at 10^-7 M or IC50
row,SMILES,class
1,CN(C)c1nc(N[C@H]2CC[C@@H](NC(=S)Nc3ccc4nsnc4c3)CC2)nc2c1CCCC2 [compound 2084],3 (Class 3 The value of percent of control at 10^−7 M was more than 60% or the value of IC50 was more than 200 nM.)
2,Cc1noc(C)c1NC(=S)N[C@H]1CC[C@@H](Nc2nc3c(c(N(C)C)n2)CCCC3)CC1 [compound 2085],3 (Class 3 The value of percent of control at 10^−7 M was more than 60% or the value of IC50 was more than 200 nM.)

# Same assay, conditions: class by percent of control at 10^-7 M or IC50
row,SMILES,class
1,CN(C)c1nc(N[C@H]2CC[C@@H](NC(=S)Nc3ccc(-c4cnco4)cc3)CC2)nc2c1CCCC2 [compound 2086],3 (Class 3 The value of percent of control at 10^−7 M was more than 60% or the value of IC50 was more than 200 nM.)
2,CN(C)c1nc(N[C@H]2CC[C@@H](NC(=S)Nc3ccc(N4CCOCC4)nc3)CC2)nc2c1CCCC2 [compound 2087],3 (Class 3 The value of percent of control at 10^−7 M was more than 60% or the value of IC50 was more than 200 nM.)
3,CN(C)c1nc(N[C@H]2CC[C@@H](NC(=S)Nc3ccc(Oc4ccccc4)nc3)CC2)nc2c1CCCC2 [compound 2088],3 (Class 3 The value of percent of control at 10^−7 M was more than 60% or the value of IC50 was more than 200 nM.)
4,CN(C)c1cc(N[C@H]2CC[C@@H](NC(=O)Nc3ccccc3Cl)CC2)nc2ccccc12 [compound 2089],2 (Class 2: The value of percent of control at 10^−7 M was from 40% to 60% or the value of IC′50 was from 50 nM to 200 nM.)
5,Cc1cccc(C)c1NC(=O)N[C@H]1CC[C@@H](Nc2cc(N(C)C)c3ccccc3n2)CC1 [compound 2090],3 (Class 3 The value of percent of control at 10^−7 M was more than 60% or the value of IC50 was more than 200 nM.)
6,CN(C)c1cc(N[C@H]2CC[C@@H](NC(=O)Nc3ccc(F)cc3F)CC2)nc2ccccc12 [compound 2091],3 (Class 3 The value of percent of control at 10^−7 M was more than 60% or the value of IC50 was more than 200 nM.)
7,"CCc1cccc(C)c1NC(=O)N[C@H]1CC[C@@H](Nc2cc(N(C)C)c3ccccc3n2)CC1 [compound 2092, N-(cis-4-{[4-(dimethylamino)quinolin-2-yl]amino}cyclohexyl)-N′-(2-ethyl-6-methylphenyl)urea]",2 (Class 2: The value of percent of control at 10^−7 M was from 40% to 60% or the value of IC′50 was from 50 nM to 200 nM.)
8,CN(C)c1cc(N[C@H]2CC[C@@H](NC(=O)Nc3ccc(F)cc3)CC2)nc2ccccc12 [compound 2094],3 (Class 3 The value of percent of control at 10^−7 M was more than 60% or the value of IC50 was more than 200 nM.)
9,CSc1ccc(NC(=O)N[C@H]2CC[C@@H](Nc3cc(N(C)C)c4ccccc4n3)CC2)cc1 [compound 2095],3 (Class 3 The value of percent of control at 10^−7 M was more than 60% or the value of IC50 was more than 200 nM.)
10,CN(C)c1cc(N[C@H]2CC[C@@H](NC(=O)Nc3ccccc3C(F)(F)F)CC2)nc2ccccc12 [compound 2096],3 (Class 3 The value of percent of control at 10^−7 M was more than 60% or the value of IC50 was more than 200 nM.)
11,"Cc1cc(C)c(NC(=O)N[C@H]2CC[C@@H](Nc3cc(N(C)C)c4ccccc4n3)CC2)c(C)c1 [compound 2097, N-(cis-4-{[4-(dimethylamino)quinolin-2-yl]amino}cyclohexyl)-N′-mesitylurea]",1 (Class 1: The value of percent of control at 10^−7 M was less than 40% or the value of IC50 was less than 50 nM.)
12,Cc1ccccc1NC(=O)N[C@H]1CC[C@@H](Nc2cc(N(C)C)c3ccccc3n2)CC1 [compound 2098],3 (Class 3 The value of percent of control at 10^−7 M was more than 60% or the value of IC50 was more than 200 nM.)
13,"CN(C)c1cc(N[C@H]2CC[C@@H](NC(=O)Nc3c(Cl)cc(Cl)cc3Cl)CC2)nc2ccccc12 [compound 2099, N-(cis-4-{[4-(dimethylamino)quinolin-2-yl]amino}cyclohexyl)-N′-(2,4,6-trichlorophenyl)urea]",2 (Class 2: The value of percent of control at 10^−7 M was from 40% to 60% or the value of IC′50 was from 50 nM to 200 nM.)
14,CN(C)c1cc(N[C@H]2CC[C@@H](NC(=O)Nc3c(F)cc(Br)cc3Br)CC2)nc2ccccc12 [compound 2101],2 (Class 2: The value of percent of control at 10^−7 M was from 40% to 60% or the value of IC′50 was from 50 nM to 200 nM.)
15,CCc1cccc(CC)c1NC(=O)N[C@H]1CC[C@@H](Nc2cc(N(C)C)c3ccccc3n2)CC1 [compound 2102],1 (Class 1: The value of percent of control at 10^−7 M was less than 40% or the value of IC50 was less than 50 nM.)
16,CN(C)c1cc(N[C@H]2CC[C@@H](NC(=O)Nc3c(Cl)cccc3C(F)(F)F)CC2)nc2ccccc12 [compound 2103],3 (Class 3 The value of percent of control at 10^−7 M was more than 60% or the value of IC50 was more than 200 nM.)
17,Cc1cccc(Cl)c1NC(=O)N[C@H]1CC[C@@H](Nc2cc(N(C)C)c3ccccc3n2)CC1 [compound 2104],3 (Class 3 The value of percent of control at 10^−7 M was more than 60% or the value of IC50 was more than 200 nM.)
18,CN(C)c1cc(N[C@H]2CC[C@@H](NC(=O)NCc3ccccc3Cl)CC2)nc2ccccc12 [compound 2105],2 (Class 2: The value of percent of control at 10^−7 M was from 40% to 60% or the value of IC′50 was from 50 nM to 200 nM.)

row,SMILES,class
1,"CCc1cccc(C(C)C)c1NC(=O)N[C@H]1CC[C@@H](Nc2cc(N(C)C)c3ccccc3n2)CC1 [compound 2106, N-(cis-4-{[4-(dimethylamino)quinolin-2-yl]amino}cyclohexyl)-N′-(2-ethyl-6-isopropylphenyl)urea]",2 (Class 2: The value of percent of control at 10^−7 M was from 40% to 60% or the value of IC′50 was from 50 nM to 200 nM.)
2,CCc1ccccc1NC(=O)N[C@H]1CC[C@@H](Nc2cc(N(C)C)c3ccccc3n2)CC1 [compound 2107],3 (Class 3 The value of percent of control at 10^−7 M was more than 60% or the value of IC50 was more than 200 nM.)
3,CN(C)c1cc(N[C@H]2CC[C@@H](NC(=O)Nc3ccccc3I)CC2)nc2ccccc12 [compound 2108],3 (Class 3 The value of percent of control at 10^−7 M was more than 60% or the value of IC50 was more than 200 nM.)
4,"Cc1cccc(C(C)C)c1NC(=O)N[C@H]1CC[C@@H](Nc2cc(N(C)C)c3ccccc3n2)CC1 [compound 2109, N-(cis-4-{[4-(dimethylamino)quinolin-2-yl]amino}cyclohexyl)-N′-(2-isopropyl-6-methylphenyl)urea]",2 (Class 2: The value of percent of control at 10^−7 M was from 40% to 60% or the value of IC′50 was from 50 nM to 200 nM.)
5,CC(C)c1ccccc1NC(=O)N[C@H]1CC[C@@H](Nc2cc(N(C)C)c3ccccc3n2)CC1 [compound 2110],3 (Class 3 The value of percent of control at 10^−7 M was more than 60% or the value of IC50 was more than 200 nM.)
6,Cc1c(NC(=O)N[C@H]2CC[C@@H](Nc3cc(N(C)C)c4ccccc4n3)CC2)cccc1[N+](=O)[O-] [compound 2111],3 (Class 3 The value of percent of control at 10^−7 M was more than 60% or the value of IC50 was more than 200 nM.)
7,CCCc1ccccc1NC(=O)N[C@H]1CC[C@@H](Nc2cc(N(C)C)c3ccccc3n2)CC1 [compound 2112],3 (Class 3 The value of percent of control at 10^−7 M was more than 60% or the value of IC50 was more than 200 nM.)
8,"Cc1cccc(C(C)(C)C)c1NC(=O)N[C@H]1CC[C@@H](Nc2cc(N(C)C)c3ccccc3n2)CC1 [compound 2113, N-(2-tert-butyl-6-methylphenyl)-N′-(cis-4-{[4-(dimethylamino)quinolin-2-yl]amino}cyclohexyl)urea]",1 (Class 1: The value of percent of control at 10^−7 M was less than 40% or the value of IC50 was less than 50 nM.)
9,CN(C)c1cc(N[C@H]2CC[C@@H](NC(=O)Nc3ccccc3C(C)(C)C)CC2)nc2ccccc12 [compound 2114],3 (Class 3 The value of percent of control at 10^−7 M was more than 60% or the value of IC50 was more than 200 nM.)
10,Cc1c(Cl)cccc1NC(=O)N[C@H]1CC[C@@H](Nc2cc(N(C)C)c3ccccc3n2)CC1 [compound 2115],3 (Class 3 The value of percent of control at 10^−7 M was more than 60% or the value of IC50 was more than 200 nM.)
11,CN(C)c1cc(N[C@H]2CC[C@@H](NC(=O)Nc3c(F)cc(Br)cc3F)CC2)nc2ccccc12 [compound 2116],3 (Class 3 The value of percent of control at 10^−7 M was more than 60% or the value of IC50 was more than 200 nM.)
12,CN(C)c1cc(N[C@H]2CC[C@@H](NC(=O)Nc3ccc(Cl)cc3C(F)(F)F)CC2)nc2ccccc12 [compound 2117],3 (Class 3 The value of percent of control at 10^−7 M was more than 60% or the value of IC50 was more than 200 nM.)
13,CN(C)c1cc(N[C@H]2CC[C@@H](NC(=O)Nc3ccc(C#N)cc3)CC2)nc2ccccc12 [compound 2118],3 (Class 3 The value of percent of control at 10^−7 M was more than 60% or the value of IC50 was more than 200 nM.)
14,"CN(C)c1cc(N[C@H]2CC[C@@H](NC(=O)NC(c3ccccc3)c3ccccc3)CC2)nc2ccccc12 [compound 2119, N-(cis-4-{[4-(dimethylamino)quinolin-2-yl]amino}cyclohexyl)-N′-(diphenylmethyl)urea]",2 (Class 2: The value of percent of control at 10^−7 M was from 40% to 60% or the value of IC′50 was from 50 nM to 200 nM.)
15,Cc1cc(Br)cc(C)c1NC(=O)N[C@H]1CC[C@@H](Nc2cc(N(C)C)c3ccccc3n2)CC1 [compound 2120],1 (Class 1: The value of percent of control at 10^−7 M was less than 40% or the value of IC50 was less than 50 nM.)
16,"Cc1noc(-c2ccccc2)c1NC(=O)N[C@H]1CC[C@@H](Nc2cc(N(C)C)c3ccccc3n2)CC1 [compound 2121, N-(cis-4-{[4-(dimethylamino)quinolin-2-yl]amino}cyclohexyl)-N′-(3-methyl-5-phenylisoxazol-4-yl)urea]",2 (Class 2: The value of percent of control at 10^−7 M was from 40% to 60% or the value of IC′50 was from 50 nM to 200 nM.)
17,Cc1cc(NC(=O)N[C@H]2CC[C@@H](Nc3cc(N(C)C)c4ccccc4n3)CC2)c(C(F)(F)F)o1 [compound 2122],3 (Class 3 The value of percent of control at 10^−7 M was more than 60% or the value of IC50 was more than 200 nM.)
18,CN(C)c1cc(N[C@H]2CC[C@@H](NC(=O)Nc3ccccc3Br)CC2)nc2ccccc12 [compound 2123],3 (Class 3 The value of percent of control at 10^−7 M was more than 60% or the value of IC50 was more than 200 nM.)
